Measured values published in patent US11427549B2, “Pyrimidinyloxy benzo-fused compounds as herbicides” (FMC Corporation, priority 2017, dated 2022).

Legend:
[1] = test system: wheat (Triticum aestivum); test: Test A postemergence, wheat; format: in vivo; conditions: Triticum aestivum, post-emergence, 240 h, 0 to 100 scale (0 no effect, 100 complete control), read-out: Plant response rating, Wheat; for plant injury at 125 g/ha: 125 g ai/ha
[2] = test system: ducksalad (Heteranthera limosa); test: Test B flooded paddy test, ducksalad; conditions: Heteranthera limosa, read-out: Plant response rating, Ducksalad (0 to 100 scale, 0 is no effect, 100 is complete control)
[3] = test system: barnyardgrass (Echinochloa crus-galli); test: Test B flooded paddy test, barnyardgrass; conditions: Echinochloa crus-galli, read-out: Plant response rating, Barnyardgrass (0 to 100 scale, 0 is no effect, 100 is complete control)
[4] = test system: barnyardgrass (Echinochloa crus-galli); test: Test A postemergence, barnyardgrass; format: in vivo; conditions: Echinochloa crus-galli, post-emergence, 240 h, 0 to 100 scale (0 no effect, 100 complete control), read-out: Plant response rating, Barnyardgrass; for pest or weed control at 125 g/ha: 125 g ai/ha
kochia (Kochia scoparia) [5] = test: Test A preemergence, kochia; format: in vivo; conditions: Bassia scoparia, pre-emergence, 240 h, 0 to 100 scale (0 no effect, 100 complete control), read-out: Plant response rating, Kochia; for pest or weed control at 125 g/ha: 125 g ai/ha
[6] = test system: barnyardgrass (Echinochloa crus-galli); test: Test A preemergence, barnyardgrass; format: in vivo; conditions: Echinochloa crus-galli, pre-emergence, 240 h, 0 to 100 scale (0 no effect, 100 complete control), read-out: Plant response rating, Barnyardgrass; for pest or weed control at 125 g/ha: 125 g ai/ha
[7] = test system: ryegrass, Italian (Italian ryegrass, Lolium multiflorum); test: Test A postemergence, ryegrass, Italian; format: in vivo; conditions: Lolium multiflorum, post-emergence, 240 h, 0 to 100 scale (0 no effect, 100 complete control), read-out: Plant response rating, Ryegrass, Italian; for pest or weed control at 125 g/ha: 125 g ai/ha
[8] = test system: blackgrass (Alopecurus myosuroides); test: Test A postemergence, blackgrass; format: in vivo; conditions: Alopecurus myosuroides, post-emergence, 240 h, 0 to 100 scale (0 no effect, 100 complete control), read-out: Plant response rating, Blackgrass; for pest or weed control at 125 g/ha: 125 g ai/ha
[9] = test system: pigweed (Amaranthus retroflexus); test: Test A postemergence, pigweed; format: in vivo; conditions: Amaranthus retroflexus, post-emergence, 240 h, 0 to 100 scale (0 no effect, 100 complete control), read-out: Plant response rating, Pigweed; for pest or weed control at 125 g/ha: 125 g ai/ha
[10] = test system: pigweed (Amaranthus retroflexus); test: Test A preemergence, pigweed; format: in vivo; conditions: Amaranthus retroflexus, pre-emergence, 240 h, 0 to 100 scale (0 no effect, 100 complete control), read-out: Plant response rating, Pigweed; for pest or weed control at 125 g/ha: 125 g ai/ha
corn (Zea mays) = test: Test A postemergence, corn; format: in vivo; conditions: Zea mays, post-emergence, 240 h, 0 to 100 scale (0 no effect, 100 complete control); for Corn plant response rating (crop injury, 0 = no effect, 100 = complete kill) at 125 g/ha: 125 g ai/ha
[11] = test system: foxtail, green (green foxtail, Setaria viridis); test: Test A preemergence, foxtail, green; format: in vivo; conditions: Setaria, pre-emergence, 240 h, 0 to 100 scale (0 no effect, 100 complete control), read-out: Plant response rating, Foxtail, Green; for pest or weed control at 125 g/ha: 125 g ai/ha
[12] = test system: ragweed (common ragweed, Ambrosia elatior); test: Test A postemergence, ragweed; format: in vivo; conditions: Ambrosia artemisiifolia, post-emergence, 240 h, 0 to 100 scale (0 no effect, 100 complete control), read-out: Plant response rating, Ragweed; for pest or weed control at 125 g/ha: 125 g ai/ha
[13] = test system: galium (catchweed bedstraw, Galium aparine); test: Test A postemergence, galium; format: in vivo; conditions: Galium, post-emergence, 240 h, 0 to 100 scale (0 no effect, 100 complete control), read-out: Plant response rating, Galium; for pest or weed control at 125 g/ha: 125 g ai/ha
rice (Oryza sativa) = test: Test B flooded paddy test, rice; conditions: Oryza sativa, read-out: Plant response rating, Rice (0 to 100 scale, 0 is no effect, 100 is complete control)
[14] = test system: ragweed (common ragweed, Ambrosia elatior); test: Test A preemergence, ragweed; format: in vivo; conditions: Ambrosia artemisiifolia, pre-emergence, 240 h, 0 to 100 scale (0 no effect, 100 complete control), read-out: Plant response rating, Ragweed; for pest or weed control at 125 g/ha: 125 g ai/ha
[15] = test system: ryegrass, Italian (Italian ryegrass, Lolium multiflorum); test: Test A preemergence, ryegrass, Italian; format: in vivo; conditions: Lolium multiflorum, pre-emergence, 240 h, 0 to 100 scale (0 no effect, 100 complete control), read-out: Plant response rating, Ryegrass, Italian; for pest or weed control at 125 g/ha: 125 g ai/ha
kochia (Kochia scoparia) [16] = test: Test A postemergence, kochia; format: in vivo; conditions: Bassia scoparia, post-emergence, 240 h, 0 to 100 scale (0 no effect, 100 complete control), read-out: Plant response rating, Kochia; for pest or weed control at 125 g/ha: 125 g ai/ha

Compound | plant injury at 125 g/ha [1] | pest or weed control at 250 g/ha [2] | pest or weed control at 250 g/ha [3] | pest or weed control at 125 g/ha [4] | pest or weed control at 125 g/ha (kochia (Kochia scoparia) [5]) | pest or weed control at 125 g/ha [6] | pest or weed control at 125 g/ha [7] | pest or weed control at 125 g/ha [8] | pest or weed control at 125 g/ha [9] | pest or weed control at 125 g/ha [10] | Corn plant response rating (crop injury, 0 = no effect, 100 = complete kill) at 125 g/ha (corn (Zea mays)) | pest or weed control at 125 g/ha [11] | pest or weed control at 125 g/ha [12] | pest or weed control at 125 g/ha [13] | plant injury at 250 g/ha (rice (Oryza sativa)) | pest or weed control at 125 g/ha [14] | pest or weed control at 125 g/ha [15] | pest or weed control at 125 g/ha (kochia (Kochia scoparia) [16]) | further results
O=C1NC(CCCC(F)(F)F)c2c(Oc3ncc(Cl)cn3)cccc21 (stereo not drawn) [Compound 13, 4-[(5-Chloro-2-pyrimidinyl)oxy]-2,3-dihydro-3-(4,4,4-trifluorobutyl)-1H-isoindol-1-one] | 0% | 0% | 0% | 0% | 0% | 0% | 0% | 0% | 10% | 0% | 0% | 0% | 0% | 0% | 0% | 0% | 0% | 0% | plant injury at 31 g/ha ([1]; 31 g ai/ha): 0%; pest or weed control at 31 g/ha ([4]; 31 g ai/ha): 0%; pest or weed control at 31 g/ha (kochia (Kochia scoparia) [5]; 31 g ai/ha): 0%; pest or weed control at 31 g/ha ([6]; 31 g ai/ha): 0%; pest or weed control at 31 g/ha ([7]; 31 g ai/ha): 0%; pest or weed control at 31 g/ha ([8]; 31 g ai/ha): 0%; pest or weed control at 31 g/ha ([9]; 31 g ai/ha): 0%; pest or weed control at 31 g/ha ([10]; 31 g ai/ha): 0%; Corn plant response rating (crop injury, 0 = no effect, 100 = complete kill) at 31 g/ha (corn (Zea mays); 31 g ai/ha): 0%; pest or weed control at 31 g/ha ([11]; 31 g ai/ha): 0%; pest or weed control at 31 g/ha ([12]; 31 g ai/ha): 0%; pest or weed control at 31 g/ha ([13]; 31 g ai/ha): 0%; pest or weed control at 31 g/ha ([14]; 31 g ai/ha): 0%; pest or weed control at 31 g/ha ([15]; 31 g ai/ha): 0%; pest or weed control at 31 g/ha (kochia (Kochia scoparia) [16]; 31 g ai/ha): 0%
OC1(CCC(F)(F)F)CCc2cccc(Oc3ncc(Cl)cn3)c21 (stereo not drawn) [Compound 14, 7-[(5-Chloro-2-pyrimidinyl)oxy]-2,3-dihydro-1-(3,3,3-trifluoropropyl)-1H-inden-1-ol] | 30% | 40% | 0% | 30% | 50% | 20% | 20% | 40% | 50% | 100% | 10% | 40% | 70% | 50% | 0% | 40% | 10% | 80% | plant injury at 500 g/ha ([1]; 500 g ai/ha): 60%; pest or weed control at 500 g/ha ([4]; 500 g ai/ha): 80%; pest or weed control at 500 g/ha (kochia (Kochia scoparia) [5]; 500 g ai/ha): 100%; pest or weed control at 500 g/ha ([6]; 500 g ai/ha): 90%; pest or weed control at 500 g/ha ([7]; 500 g ai/ha): 90%; pest or weed control at 500 g/ha ([8]; 500 g ai/ha): 90%; pest or weed control at 500 g/ha ([9]; 500 g ai/ha): 100%; pest or weed control at 500 g/ha ([10]; 500 g ai/ha): 100%; Corn plant response rating (crop injury, 0 = no effect, 100 = complete kill) at 500 g/ha (corn (Zea mays); 500 g ai/ha): 40%; pest or weed control at 500 g/ha ([11]; 500 g ai/ha): 100%; pest or weed control at 500 g/ha ([12]; 500 g ai/ha): 90%; pest or weed control at 500 g/ha ([13]; 500 g ai/ha): 90%; pest or weed control at 500 g/ha ([14]; 500 g ai/ha): 70%; pest or weed control at 500 g/ha ([15]; 500 g ai/ha): 60%; pest or weed control at 500 g/ha (kochia (Kochia scoparia) [16]; 500 g ai/ha): 80%
